In the METLIN SMRT retention time set (Domingo-Almenara et al. 2019):

Assay: gradient 5% acetonitrile 3 min, to 50% in 2 min, to 85% in 15 min, held 3 min, 100 µL/min
Details: column: Zorbax Extend-C18 2.1 x 50 mm; eluents: water / acetonitrile, 0.1% formic acid
Procedure, shortened: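 Pure standards were analyzed in mixtures of ~100 molecules using HPLC coupled to a quadrupole time-of-flight mass spectrometer, in both positive and negative ionization mode. Separation used a Zorbax Extend-C18 column (2.1 × 50 mm, 1.8 μm) at 100 μL/min, with water and acetonitrile each containing 0.1% formic acid. Dead and dwell volumes were 40 μL and 900 μL, and data were collected over 3 months. Retention time was read from computationally picked adduct peaks, each inspected manually.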

Row | Structure (SMILES) | RP-LC retention time [s]
1 | O=C(CCCSc1ccc(NC(=O)c2ccc(F)cc2)nn1)Nc1nccs1 | 745
2 | CCCCN(CC)C(=O)C1CCCN(c2ccc(-c3ccc(C)cc3)nn2)C1 (centres undefined) | 796
3 | Cc1nn(-c2ccc(C(=O)NCc3cc(F)cc(F)c3)cn2)c(C)c1C | 918
4 | COc1cccc(-c2noc(C3CCCN3C(=O)c3ccoc3)n2)c1 (centres undefined) | 854
5 | COc1ccc(CN2CCc3nc(N4CCN(c5ncccn5)CC4)ncc3C2)cc1OC | 626
6 | O=C(NC1CCCCCC1)C1CCCN(c2nc3ccccc3n(Cc3ccccc3)c2=O)C1 (centres undefined) | 1290
7 | O=S(=O)(c1cc(-c2ccno2)cs1)N1CCN(c2ncccn2)CC1 | 843
8 | CCN1C(=O)CCC2(C(=O)Nc3ccc(C)cc3)CCCC=C12 (centres undefined) | 781
9 | CC(C)C(=O)Nc1nc(-c2ccc3c(c2)NC(=O)CO3)cs1 | 739
10 | COc1cccc(C2=NN(C(C)=O)C(c3ccc(Br)cc3)O2)c1OC(C)=O (centres undefined) | 1040
11 | Cc1noc2nc(CCC(=O)NCCCN3CCc4ccccc4C3)nc(N3CCCCCC3)c12 | 695
12 | CCOC(=O)c1ccccc1NC(=O)CSc1ccc(N2CCCC(C(=O)NC3CC3)C2)nn1 (centres undefined) | 680
13 | COc1ccc(N2CCN(CC(=O)Nc3ccc4c(c3)Cc3ccccc3-4)C2=O)cc1 | 915
14 | O=C(Nc1cnn(-c2ncncc2N2CCCC2)c1)c1ccc(C(F)(F)F)cc1 | 779
15 | CCn1cc(CCNC(=O)Nc2cccc(C(C)=O)c2)c2cccnc21 | 665
16 | O=C(NC(c1ccccc1)c1nnc(N2CCCC2)o1)c1cccc(Cl)c1 (centres undefined) | 867
17 | CC(NC(=O)Cn1cc(C(=O)c2ccco2)c2ccccc21)c1ccc2c(c1)OCCCO2 (centres undefined) | 837
18 | CC1(C)CC(NC(=O)c2cccc(Br)c2)CC(C)(C)N1 | 620
19 | O=C(Cc1cccs1)Nc1nnc(Cc2ccc(F)cc2)o1 | 707
20 | COc1ccc(OC)c(NC(=O)Nc2c(-c3ccc(F)cc3)nc3ccccn23)c1 | 625
21 | O=C(NCCc1ccc(N2CCCC2)cc1)C(=O)Nc1ccc(OC(F)(F)F)cc1 | 1090
22 | Cc1ccc2[nH]c(=O)c(CCC(=O)NCc3ccncc3)cc2c1 | 586
23 | CCc1ccc2c(c1)-c1ccccc1S(=O)(=O)N2CC(=O)N1CCN(C)CC1 | 662

Row | Structure (SMILES) | RP-LC retention time [s]
24 | Cn1cnc2c(=O)oc3ccc(S(=O)(=O)N4CCN(c5ccccn5)CC4)cc3c21 | 576
25 | Cc1ccc(Cl)cc1N1CCN(C(=O)CN2C(=O)C3C4C=CC(C4)C3C2=O)CC1 (centres undefined) | 977
26 | CC(C)c1ccc(S(=O)(=O)N2C[C@@H](F)C[C@H]2C(=O)N2CCOCC2)cc1 | 802
27 | CCCN(C)c1nccn2c(=O)n(CC(=O)Nc3cccc(C)c3C)nc12 | 684
28 | Cc1cccc(N2CCN(C(=O)CCC3CCCN(C(=O)Nc4ccccc4)C3)CC2)c1C (centres undefined) | 1080
29 | Cc1cc(C)c(S(=O)(=O)N2CCC(C(=O)NCc3csc(-c4cccs4)n3)CC2)cc1C | 1050
30 | CCc1ccc(-n2nc(N3CCCC(C(=O)NCc4ccc(OC)cc4OC)C3)ccc2=O)cc1 (centres undefined) | 872
31 | Cc1ccc(NS(=O)(=O)c2ccc(-c3c(C)noc3C)cc2)cc1F | 964
32 | O=C1c2ccccc2C(=O)c2c1cccc2N1CCCC(CO)C1 (centres undefined) | 635
33 | CCOC(=O)c1cc(S(=O)(=O)N2CCCC2C(=O)NCc2cccnc2)cn1C (centres undefined) | 598
34 | CC(C)NC(=O)N1CCC[C@H]1c1nc(-c2ccc(F)cc2)n[nH]1 | 678
35 | COc1ccc(CN2CCC3(CC2)CC(C)(O)CCO3)c(OC)c1 (centres undefined) | 607
36 | Cn1ccc(CN2CCN(Cc3cccc(F)c3)CC2)cc1=O | 558
37 | Cc1ccc(C)c(CNC(=O)CN2CCN(Cc3ccc(F)cc3)C2=O)c1 | 862
38 | Cc1cccc(-c2nc(Cn3nnc(-c4nc(-c5ccc(Cl)cc5)no4)c3C)c(C)o2)c1 | 1320
39 | COc1cc(NC(=O)c2cn(-c3cc(N(C)C)ncn3)cn2)cc(OC)c1 | 809
40 | CCOc1ccc(CNC(=O)c2cnc(N3CCSCC3)nc2N)cc1 | 716
41 | CN1C(=O)c2cc(C(=O)NCc3cccc(F)c3)nn2CC1(C)C(=O)NCc1ccccc1 (centres undefined) | 747
42 | CN1CCC(NC(=O)C2CCc3sc(C(=O)N4CCCCCC4)cc3C2)CC1 (centres undefined) | 612
43 | CCc1nnc(-c2cc(NC(=O)C3CCN(C(C)=O)CC3)c(C)s2)o1 | 697
44 | CCc1nc2c(NC(=O)c3cc(F)cc(F)c3)cccn2n1 | 851
45 | Cc1ccc(S(=O)(=O)N2C[C@@H](F)C[C@H]2C(=O)N2CCOCC2)cc1F | 710
46 | CCOc1ccccc1N(C)C(=O)C1CCCN(c2ncnc3c2nc2n3CCCCC2)C1 (centres undefined) | 850

Row | Structure (SMILES) | RP-LC retention time [s]
47 | COc1ccc(CC(=O)Nc2cccc(-c3cn4cccnc4n3)c2)cc1 | 610
48 | Cc1oc(C2CCN(S(=O)(=O)c3ccc(C(C)C)cc3)CC2)nc1C(=O)N1CCCC1 | 1070
49 | COc1ccc(-c2cc(C(=O)O)c3ccccc3n2)cc1OC | 658
50 | CCCNC(=O)CSc1nc2nc(C)cc(C)n2n1 | 611
51 | CCCn1cc(S(=O)(=O)Nc2ccc(C)c(F)c2)c2cccnc21 | 921
52 | Cc1nc(C2(C)CCN(S(=O)(=O)c3ccc(C(C)C)cc3)CC2)no1 | 1050
53 | O=C(Nc1nccs1)C1CCN(C(=O)Cc2c(F)cccc2Cl)CC1 | 717
54 | CCC1(c2ccccc2)NC(=O)N(C)C1=O (centres undefined) | 794
55 | COc1ccc(CN(Cc2ccccc2)Cc2cc(=O)n3cc(C)ccc3n2)cc1OC | 616
56 | O=C(Nc1ccccc1F)C1COc2ccccc2C1 (centres undefined) | 874
57 | CCOc1cccc(C2c3[nH]c4ccccc4c3CCN2C(=O)COC)c1 (centres undefined) | 983
58 | CCCN1C(=O)COc2ccc(-c3noc(C4CC(=O)N(c5ccccc5)C4)n3)cc21 (centres undefined) | 948
59 | COc1ccc(C(=O)NC(CC(C)C)C(=O)Nc2nc3ccccc3[nH]2)cc1 (centres undefined) | 725
60 | Cc1csc(NC(=O)CN2CCC3(CC2)NC(=O)N(Cc2ccc(Cl)cc2)C3=O)n1 | 949
61 | COc1ccc(CNC2=NCCNC23CCN(S(=O)(=O)c2ccc(CC(C)C)cc2)CC3)cc1 | 878
62 | Cc1ccc(C(=O)NC2CCN(c3ccc(C)cc3)C2=O)cc1 (centres undefined) | 825
63 | CCc1ccc(-c2nc(-c3ccc(-n4cccn4)nc3)no2)cc1 | 1470
64 | O=C(CCc1ccccc1)N1CCC(c2noc(-c3cnccn3)n2)C1 (centres undefined) | 735
65 | O=C(Nc1nc2ccccc2s1)C1CCN(C(=O)c2ccc(F)cc2)CC1 | 808
66 | Cc1cccc(-n2c(=O)c3c(cc(C)n3C)n(CC(=O)Nc3ccccc3)c2=O)c1 | 852
67 | O=C(Cn1c(=O)c2cc(C3CC3)nn2c2ncccc21)N1CCc2ccccc21 | 808
68 | O=C(CCc1cc2ccccc2[nH]c1=O)NCCN1CCc2ccccc2C1 | 607
69 | CCCN1CCn2cc(S(=O)(=O)Nc3cccc(C)c3C)cc2C1=O | 758

Row | Structure (SMILES) | RP-LC retention time [s]
70 | OC[C@@H]1CN(Cc2ccco2)C[C@H]1c1nc(-c2ccncc2)no1 | 547
71 | Cc1nc(-c2ccncc2)nc2c1CCC(=O)N2CC1COCCO1 (centres undefined) | 591
72 | CN1C(=O)c2ccccc2Oc2ccc(C(=O)N3CCCCCC3)cc21 | 846
73 | COc1cc(OC)c(NC(=O)N2CCOc3ccccc32)cc1Cl | 1010
74 | O=c1n(Cc2ccccc2)nc2ccc(S(=O)(=O)N3CCCCC3)cn12 | 910
75 | COc1cccc(CN2CCn3c(nnc3[C@@H]3C[C@@H](O)CN3Cc3ccccc3)C2)c1 | 622
76 | Cc1nc2cc(N3CC(C(=O)NCc4ccc(OC(C)C)cc4)CC3=O)ccc2o1 (centres undefined) | 778
77 | CC(=O)N1CCc2cc(CNS(=O)(=O)c3ccc(Br)cc3)ccc21 | 830
78 | Cc1cc(N2CCN(C)CC2)nc2ccc(NC(=S)N3CCN(c4ccc(F)cc4)CC3)cc12 | 606
79 | CN1C(=O)C2(CCN(C(=O)Nc3ccccc3)C2)c2ccccc21 (centres undefined) | 764
80 | CCOC(=O)c1nc(NCc2ccc(C)cc2)c2ccccc2n1 | 823
81 | COc1ccc(Cl)cc1NC(=O)CSc1nnc2c3cc(-c4ccc(C)cc4)nn3ccn12 | 1040
82 | O=C(c1ccc(F)cc1)N1CCCC(c2nnc(-c3ccccc3)o2)C1 (centres undefined) | 819
83 | O=C(N1CCN(c2ccccc2F)CC1)C1(CCO)CCN(c2ncccn2)C1 (centres undefined) | 652
84 | O=C1NCCN2CC3(CCN(S(=O)(=O)c4cccc5cccnc45)CC3)CC12 (centres undefined) | 581
85 | CN1C2CCC1CC(OC(c1ccccc1)c1ccccc1N)C2 (centres undefined) | 752
86 | CCCn1ccc2sc(C)c(C(=O)N3CCOCC3)c2c1=O | 646
87 | CCN(CC)S(=O)(=O)c1ccc2c(c1)CC(C(=O)N1CCC(C)CC1)N2C(C)=O (centres undefined) | 849
88 | CCN(CC)C(=O)CN1CCN(c2cc(C(=O)O)c3cc(NC(=O)C(C)(C)C)ccc3n2)CC1 | 572
89 | O=C1CCCc2cc(S(=O)(=O)N3CCCC3C(=O)NC3CCCCCC3)ccc2N1 (centres undefined) | 782
